Patent US10851102B2, “Imidazole and triazole containing bicyclic compounds as JAK inhibitors” (THERAVANCE BIOPHARMA R&D IP, LLC, priority 2019, dated 2020)
Where two headings read alike, the source gives them in different places.

Experiments:
JAK1 = JAK1 (Homo sapiens (Human), UniProt P23458); experiment: Biochemical JAK and Tyk2 kinase assays (LanthaScreen): JAK1; details: 1 h pre-incubation, ATP at Km; pIC50 converted to pKi by Cheng-Prusoff
Description: (§1) Assay 1: Biochemical JAK and Tyk2 Kinase Assays
(§2) A panel of four LanthaScreen JAK biochemical assays (JAK1, 2, 3 and Tyk2) were carried in a common kinase reaction buffer (50 mM HEPES, pH 7.5, 0.01% Brij-35, 10 mM MgCl2, and 1 mM EGTA). Recombinant GST-tagged JAK enzymes and a GFP-tagged STAT1 peptide substrate were obtained from Life Technologies.
(§3) Serially or discretely diluted compounds were pre-incubated with each of the four JAK enzymes and the substrate in white 384-well microplates (Corning) at ambient temperature for 1 h. ATP was subsequently added to initiate the kinase reactions in 10 μL total volume, with 1% DMSO. […] Kinase reactions were allowed to proceed for 1 hour at ambient temperature before a 10 μL preparation of EDTA (10 mM final concentration) and Tb-anti-pSTAT1 (pTyr701) antibody (Life Technologies, 2 nM final concentration) in TR-FRET dilution buffer (Life Technologies) was added. The plates were allowed to incubate at ambient temperature for 1 h before being read on the EnVision reader (Perkin Elmer). Emission ratio signals (520 nm/495 nm) were recorded and utilized to calculate the percent inhibition values based on DMSO and background controls.
(§4) For dose-response analysis, percent inhibition data were plotted vs. compound concentrations, and IC50 values were determined from a 4-parameter robust fit model with the Prism software (GraphPad Software). Results were expressed as pIC50 (negative logarithm of IC50) and subsequently converted to pKi (negative logarithm of dissociation constant, Ki) using the Cheng-Prusoff equation.

JAK3 = JAK3 (Homo sapiens (Human), UniProt P52333); experiment: Biochemical JAK and Tyk2 kinase assays (LanthaScreen): JAK3; details: for JAK3 (pKi)-JAK1 (pKi): difference of pKi values, selectivity JAK3 over JAK1; for Ki: read-out: JAK 3 (pKi) (converted)
Sequence of JAK3 (P52333 whole entry): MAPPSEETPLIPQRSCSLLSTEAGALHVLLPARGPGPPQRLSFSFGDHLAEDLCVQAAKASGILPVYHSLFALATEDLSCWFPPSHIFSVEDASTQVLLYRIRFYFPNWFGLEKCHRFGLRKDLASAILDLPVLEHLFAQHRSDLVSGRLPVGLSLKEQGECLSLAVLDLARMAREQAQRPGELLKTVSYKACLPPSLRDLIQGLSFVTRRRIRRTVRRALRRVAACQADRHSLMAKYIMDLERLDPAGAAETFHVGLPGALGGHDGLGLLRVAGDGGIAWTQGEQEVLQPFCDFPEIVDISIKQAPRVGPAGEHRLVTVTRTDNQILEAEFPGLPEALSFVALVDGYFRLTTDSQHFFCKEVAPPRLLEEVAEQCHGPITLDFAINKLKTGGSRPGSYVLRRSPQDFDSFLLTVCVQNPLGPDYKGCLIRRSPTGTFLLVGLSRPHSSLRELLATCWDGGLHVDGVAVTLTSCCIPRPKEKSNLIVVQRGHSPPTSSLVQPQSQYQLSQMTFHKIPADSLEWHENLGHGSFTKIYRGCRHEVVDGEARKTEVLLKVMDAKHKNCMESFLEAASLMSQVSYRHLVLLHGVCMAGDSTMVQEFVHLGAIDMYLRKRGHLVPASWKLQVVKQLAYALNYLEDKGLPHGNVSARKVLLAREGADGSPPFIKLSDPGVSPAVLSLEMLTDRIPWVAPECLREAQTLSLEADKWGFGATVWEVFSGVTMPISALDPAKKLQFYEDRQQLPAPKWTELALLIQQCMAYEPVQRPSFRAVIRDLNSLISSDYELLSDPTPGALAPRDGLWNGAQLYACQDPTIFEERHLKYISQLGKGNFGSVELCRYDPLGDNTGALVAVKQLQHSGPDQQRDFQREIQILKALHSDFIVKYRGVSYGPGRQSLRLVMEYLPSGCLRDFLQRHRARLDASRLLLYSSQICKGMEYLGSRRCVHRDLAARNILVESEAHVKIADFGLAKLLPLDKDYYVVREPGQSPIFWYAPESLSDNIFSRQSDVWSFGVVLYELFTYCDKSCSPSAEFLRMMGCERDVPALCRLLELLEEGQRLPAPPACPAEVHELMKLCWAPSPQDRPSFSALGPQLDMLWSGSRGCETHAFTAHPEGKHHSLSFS
Description: as §1, §2, §3, §4

[1] = tested on: IL-2 stimulated pSTAT5 in Tall-1 T cells (JAK3); experiment: Cellular JAK3 potency assay: inhibition of IL-2 stimulated pSTAT5 in Tall-1 T cells; type: cell-based; details: IL-2 300 ng/ml, pSTAT5 AlphaLisa, Tall-1 human T cell line; read-out: Tall-1 (pIC50) (converted)
Description: Assay 2: Cellular JAK3 Potency Assay: Inhibition of IL-2 Stimulated pSTAT5 in Tall-1 T Cells
The potency of test compounds for inhibition of interleukin-2 (IL-2) stimulated STATS phosphorylation was measured in the Tall-1 human T cell line (DSMZ) using AlphaLisa. Because IL-2 signals through JAK3, this assay provides a measure of JAK3 cellular potency.
Phosphorylated STATS was measured via the AlphaLISA SureFire Ultra pSTAT5 (Tyr694/699) kit (PerkinElmer).
Human T cells from the Tall-1 cell line were cultured in a 37° C., 5% CO2 humidified incubator in RPMI (Life Technologies) supplemented with 15% Heat Inactivated Fetal Bovine Serum (FBS, Life Technologies), 2 mM Glutamax (Life Technologies), 25 mM HEPES (Life Technologies) and 1× Pen/Strep (Life Technologies). Compounds were serially diluted in DMSO and dispensed acoustically to empty wells. Assay media (phenol red-free DMEM (Life Technologies) supplemented with 10% FBS (ATCC)) was dispensed (4 μL/well) and plates shaken at 900 rpm for 10 mins. Cells were seeded at 45,000 cells/well in assay media (4 μL/well), and incubated at 37° C., 5% CO2 for 1 hour, followed by the addition of IL-2 (R&D Systems; final concentration 300 ng/ml) in pre-warmed assay media ([…]) for 30 minutes. After cytokine stimulation, cells were lysed with 6 ul of 3× AlphaLisa Lysis Buffer (PerkinElmer) containing 1× PhosStop and Complete tablets (Roche). The lysate was shaken at 900 rpm for 10 minutes at room temperature (RT). Phosphorylated STATS was measured via the pSTAT5 AlphaLisa kit (PerkinElmer). Freshly prepared acceptor bead mixture was dispensed onto lysate (5 μL) under green filtered <100 lux light. Plates were shaken at 900 rpm for 2 mins, briefly spun down, and incubated for 2 hrs at RT in the dark. Donor beads were dispensed (5 μL) under green filtered <100 lux light. Plates were shaken at 900 rpm for 2 minutes, briefly spun down, and incubated overnight at RT in the dark. Luminescence was measured with excitation at 689 nm and emission at 570 nm using an EnVision plate reader (PerkinElmer) under green filtered <100 lux light.
To determine the inhibitory potency of test compounds in response to IL-2, the average emission intensity of beads bound to pSTAT5 was measured in a human T cell line. IC50 values were determined from analysis of the inhibition curves of signal intensity versus compound concentration. Data are expressed as pIC50 (negative decadic logarithm IC50) values (mean±standard deviation).

[2] = 1 h pre-incubation, ATP at Km, pIC50 converted to pKi by Cheng-Prusoff

Sequence of JAK1 (P23458 whole entry): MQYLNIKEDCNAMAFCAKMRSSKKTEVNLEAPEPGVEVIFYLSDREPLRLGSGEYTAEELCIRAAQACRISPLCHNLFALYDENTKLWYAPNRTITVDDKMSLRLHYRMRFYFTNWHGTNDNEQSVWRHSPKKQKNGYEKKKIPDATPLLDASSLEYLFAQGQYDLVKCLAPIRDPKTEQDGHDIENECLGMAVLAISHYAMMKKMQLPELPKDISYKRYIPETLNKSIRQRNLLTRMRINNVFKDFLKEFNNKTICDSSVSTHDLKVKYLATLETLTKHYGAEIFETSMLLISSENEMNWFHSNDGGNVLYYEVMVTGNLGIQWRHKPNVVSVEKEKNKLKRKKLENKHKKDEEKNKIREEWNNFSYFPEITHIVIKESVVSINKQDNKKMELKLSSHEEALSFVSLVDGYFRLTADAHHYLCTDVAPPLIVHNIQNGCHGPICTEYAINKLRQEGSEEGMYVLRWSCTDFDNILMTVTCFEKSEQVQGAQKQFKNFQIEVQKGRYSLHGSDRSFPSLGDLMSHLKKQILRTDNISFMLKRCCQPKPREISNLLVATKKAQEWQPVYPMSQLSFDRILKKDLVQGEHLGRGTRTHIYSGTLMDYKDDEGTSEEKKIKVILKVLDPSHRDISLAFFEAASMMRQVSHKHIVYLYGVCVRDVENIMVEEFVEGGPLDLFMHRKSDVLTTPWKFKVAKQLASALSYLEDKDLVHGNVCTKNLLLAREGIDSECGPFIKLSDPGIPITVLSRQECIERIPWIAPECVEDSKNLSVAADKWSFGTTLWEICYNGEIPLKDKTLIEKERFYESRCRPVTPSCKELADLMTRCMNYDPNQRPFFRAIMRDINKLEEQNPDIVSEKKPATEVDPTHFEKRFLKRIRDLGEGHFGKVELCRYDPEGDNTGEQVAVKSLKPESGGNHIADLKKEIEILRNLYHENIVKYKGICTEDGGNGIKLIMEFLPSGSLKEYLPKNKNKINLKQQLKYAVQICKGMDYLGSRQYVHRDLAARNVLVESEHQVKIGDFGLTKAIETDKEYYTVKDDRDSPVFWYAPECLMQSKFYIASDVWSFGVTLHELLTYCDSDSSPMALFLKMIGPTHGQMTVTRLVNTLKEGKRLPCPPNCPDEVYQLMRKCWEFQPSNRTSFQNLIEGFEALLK

| Compound | JAK 1 (pKi) (JAK1) | JAK 3 (pKi) (JAK3; [2]) | JAK3 (pKi)-JAK1 (pKi) (JAK3) | Ki (JAK3; [2]) | IC50 [1] | Ki (JAK1) | Ki (JAK3) |
| --- | --- | --- | --- | --- | --- | --- | --- |
| C=CC(=O)N1CCC(N(C)c2cc(-c3ccc(O)cc3)cn3cncc23)CC1 [Example 17] | E (E represents a pKi value of 7 or below (Ki of 100 nM or above)) | C (C represents a pKi value between 8 and 9 (Ki between 10 nM and 1 nM)) | B (B represents a value of 2.3 to 3) | – | – | – | – |
| C=CC(=O)N1[C@H](C)C[C@H](Oc2cc(-c3ccc(O)cc3)cn3cncc23)C[C@@H]1C [Example 40] | E (E represents a pKi value of 7 or below (Ki of 100 nM or above)) | – | B (B represents a value of 2.3 to 3) | 1 to 10 nM | 200 to 1000 nM | – | – |
| C=CC(=O)N1[C@@H]2CC[C@H]1C[C@H](Oc1cc(-c3cc(F)c(O)cc3CC)cn3cncc13)C2 [Example 48] | – | A (A represents a pKi value≥10 (Ki≤0.1 nM)) | A (A represents a value of 3 or above) | – | ≤ 31.6 nM | 10 to 100 nM | – |
| C=CC(=O)N1[C@@H]2CC[C@H]1C[C@@H](Oc1cc(-c3ccc(O)cc3)cn3cncc13)C2 [Example 36] | E (E represents a pKi value of 7 or below (Ki of 100 nM or above)) | A (A represents a pKi value≥10 (Ki≤0.1 nM)) | A (A represents a value of 3 or above) | – | 31.6 to 200 nM | – | – |
| C=CC(=O)N1CC(CNc2cc(-c3ccc(O)cc3)cn3cncc23)C1 [Example 52] | E (E represents a pKi value of 7 or below (Ki of 100 nM or above)) | – | B (B represents a value of 2.3 to 3) | 1 to 10 nM | – | – | – |
| CCc1cc(O)ccc1-c1cc(OCC2CN(C(=O)/C=C/CN(C)C)C2)c2cncn2c1 [Example 25] | E (E represents a pKi value of 7 or below (Ki of 100 nM or above)) | – | A (A represents a value of 3 or above) | 0.1 to 1 nM | 200 to 1000 nM | – | – |
| C=CC(=O)N1CC(COc2cc(-c3cc(C)c(O)c(C)c3)cn3cncc23)C1 [Example 35] | E (E represents a pKi value of 7 or below (Ki of 100 nM or above)) | – | A (A represents a value of 3 or above) | 0.1 to 1 nM | 200 to 1000 nM | – | – |
| C=CC(=O)N1CC(CSc2cc(-c3ccc(O)cc3)cn3cncc23)C1 [Example 29] | E (E represents a pKi value of 7 or below (Ki of 100 nM or above)) | – | A (A represents a value of 3 or above) | 0.1 to 1 nM | 200 to 1000 nM | – | – |
| C=CC(=O)N1CC(COc2cc(-c3ccc(O)cc3OC)cn3cncc23)C1 [Example 45] | E (E represents a pKi value of 7 or below (Ki of 100 nM or above)) | – | A (A represents a value of 3 or above) | 0.1 to 1 nM | 200 to 1000 nM | – | – |
| CCc1cc(O)c(F)cc1-c1cc(O[C@H]2CCCN(C(=O)/C=C/CN(C)C)C2)c2cncn2c1 [Example 18] | E (E represents a pKi value of 7 or below (Ki of 100 nM or above)) | – | B (B represents a value of 2.3 to 3) | 0.1 to 1 nM | – | – | – |
| C=CC(=O)N1CC(COc2cc(-c3ccc(O)cc3)cn3cnnc23)C1 [Example 5, 1-(3-(((6-(4-hydroxyphenyl)-[1,2,4]triazolo[4,3-a]pyridin-8-yl)oxy)methyl)azetidin-1-yl)prop-2-en-1-one] | E (E represents a pKi value of 7 or below (Ki of 100 nM or above)) | A (A represents a pKi value≥10 (Ki≤0.1 nM)) | A (A represents a value of 3 or above) | – | 200 to 1000 nM | – | – |
| C=CC(=O)N1CC(COc2cc(-c3cc(C)c(O)cc3C)cn3cncc23)C1 [Example 43] | E (E represents a pKi value of 7 or below (Ki of 100 nM or above)) | – | A (A represents a value of 3 or above) | 0.1 to 1 nM | 31.6 to 200 nM | – | – |
| C=CC(=O)N1CC2(CCC2Oc2cc(-c3cc(F)c(O)cc3CC)cn3cncc23)C1 (stereo not drawn) [Example 46] | E (E represents a pKi value of 7 or below (Ki of 100 nM or above)) | – | B (B represents a value of 2.3 to 3) | 0.1 to 1 nM | 31.6 to 200 nM | – | – |
| C=CC(=O)N1[C@@H]2CC[C@H]1C[C@H](Oc1cc(-c3ccc(O)cc3)cn3cncc13)C2 [Example 10, 1-((1R,3S,5S)-3-((6-(4-hydroxyphenyl)imidazo[1,5-a]pyridin-8-yl)oxy)-8-azabicyclo[3.2.1]octan-8-yl)prop-2-en-1-one] | – | – | – | – | 31.6 to 200 nM | – | – |
| CN(C)C/C=C/C(=O)N1CC(COc2cc(-c3ccc(O)cc3)cn3cncc23)C1 [Example 19] | E (E represents a pKi value of 7 or below (Ki of 100 nM or above)) | – | A (A represents a value of 3 or above) | 0.1 to 1 nM | 200 to 1000 nM | – | – |
| C=CC(=O)N1CCC(Oc2cc(-c3cc(F)c(O)cc3CC)cn3cncc23)C(F)(F)C1 (stereo not drawn) [Example 49] | – | – | C (C represents a value of 1.8 to 2.3) | – | ≤ 31.6 nM | 10 to 100 nM | 0.1 nM |
| C=CC(=O)N1CC[C@H](Oc2cc(-c3ccc(O)cc3)cn3cncc23)C[C@@H]1C [Example 38] | E (E represents a pKi value of 7 or below (Ki of 100 nM or above)) | – | A (A represents a value of 3 or above) | 0.1 to 1 nM | 31.6 to 200 nM | – | – |
| C=CC(=O)N1CCC[C@H](Nc2cc(-c3ccc(O)cc3)cn3cncc23)C1 [Example 51] | E (E represents a pKi value of 7 or below (Ki of 100 nM or above)) | – | B (B represents a value of 2.3 to 3) | 1 to 10 nM | – | – | – |
| C=CC(=O)N1CCC(Oc2cc(-c3cc(F)c(O)cc3CC)cn3cncc23)CC1 [Example 47] | – | A (A represents a pKi value≥10 (Ki≤0.1 nM)) | B (B represents a value of 2.3 to 3) | – | ≤ 31.6 nM | 10 to 100 nM | – |
| C=CC(=O)N1[C@@H]2CC[C@H]1C[C@H](Nc1cc(-c3ccc(O)cc3)cn3cncc13)C2 [Example 50] | E (E represents a pKi value of 7 or below (Ki of 100 nM or above)) | – | B (B represents a value of 2.3 to 3) | 1 to 10 nM | – | – | – |
